This is an account of results in ChEMBL document CHEMBL1151126, “Studies on inhibitors of skin tumor promotion, III. Inhibitory effects of isoflavonoids from Wisteria brachybotrys on Epstein-Barr virus activation” (J Nat Prod, 1988).

SMILES strings stand for the structures. Active and inactive are the calls of the source. The calls are words filed in the database; no cut-off is given here.

The subject of data set [1] is Raji. The experiment in a line: Inhibition of 12-O-tetradecanoylphorbol-13-acetate-induced EBV-early antigen activation in human Raji cells assessed as early antigen induction at 1000 molar ratio after 48 hrs by indirect immunofluorescence technique relative to TPA. Type of data set: cell-based. Also on record: scale not given: the % may be the effect or the level left. Particulars: human gammaherpesvirus 4.

Data set [2] concerns HeLa. The experiment in a line: Cytotoxicity in human HeLa cells assessed as decrease in cell number at 50 uM after 1 hr. Type of data set: cell-based.
Data set [3] has as its system Raji. Put plainly: Inhibition of 12-O-tetradecanoylphorbol-13-acetate-induced EBV-early antigen activation in human Raji cells assessed as early antigen induction at 10000 molar ratio after 48 hrs by indirect immunofluorescence technique relative to TPA. The conditions noted are these: human gammaherpesvirus 4. It counts as cell-based. Also on record: scale not given: the % may be the effect or the level left.

Data set [4] has as its system Raji. The experiment in a line: Inhibition of 12-O-tetradecanoylphorbol-13-acetate-induced EBV-early antigen activation in human Raji cells assessed as early antigen induction at 100 molar ratio after 48 hrs by indirect immunofluorescence technique relative to TPA. It counts as cell-based. On the set-up: scale not given: the % may be the effect or the level left. Particulars: human gammaherpesvirus 4.

Data set [5] can be described thus: Cytotoxicity against human Raji cells assessed as cell viability at 1000 molar ratio. Type of data set: cell-based. Particulars: read-out: Activity.
The subject of data set [6] is Raji. Put plainly: Inhibition of 12-O-tetradecanoylphorbol-13-acetate-induced EBV-early antigen activation in human Raji cells assessed as early antigen induction at 10 molar ratio after 48 hrs by indirect immunofluorescence technique relative to TPA. It counts as cell-based. The conditions noted are these: human gammaherpesvirus 4. Also on record: scale not given: the % may be the effect or the level left.

Data set [7] is described as follows: Cytotoxicity against human Raji cells assessed as cell viability at 100 molar ratio. It counts as cell-based. The conditions noted are these: read-out: Activity.
The test system of data set [8] is HeLa. Put plainly: Inhibition of TPA-stimulated [32P] incorporation into phospholipids in human HeLa cells at 50 uM after 1 hr. Type of data set: functional.
Data set [9] can be described thus: Cytotoxicity against human Raji cells assessed as cell viability at 10 molar ratio. It counts as cell-based. The conditions noted are these: read-out: Activity.
Data set [10] has as its system Raji. Put plainly: Inhibition of EBV-early antigen activation in human Raji cells assessed as early antigen activation at 320 nM. Type of data set: cell-based. Also on record: scale not given: the % may be the effect or the level left. Particulars: human gammaherpesvirus 4.
A short description of data set [11]: Cytotoxicity against human Raji cells assessed as cell viability at 10000 molar ratio. The conditions noted are these: read-out: Activity. It counts as cell-based.
Data set [12] deals with HeLa. The experiment in a line: Cytotoxicity in human HeLa cells assessed as effect on cell viability at 50 uM after 1 hr. Type of data set: cell-based.
Data set [13] is filed under the species Mus musculus. The experiment in a line: Displacement of [3H]TPA from TPA receptor in ICR mouse epidermal particulate fraction by Me2CO filter method. On the technique in general: Loss of bound radioactivity is the signal in a displacement assay; it reports binding, not function.

`COc1ccc(-c2coc3cc(O[C@@H]4O[C@H](CO)[C@@H](O)[C@H](O)[C@H]4O)c(OC)cc3c2=O)cc1` [WISTIN]: the Activity in data set [1] is 78.5%; in data set [2], “Non-toxic”; in data set [3] it was 15.2%; in data set [4], 86.6%; in [6], 100%; in data set [10] it was 0%. The Activity entry in data set [12] is listed as “Non-toxic”. Also, the viability at 1000 molar ratio in data set [5] is over 80%. Also, the viability at 100 molar ratio in data set [7] is over 80%. Further, at 50 µM the inhibition in data set [8] was 0%. Besides, in data set [9], the viability at 10 molar ratio was determined as 100%. Moreover, the viability at 10000 molar ratio in [11] turned out to be 50%.
Regarding `CCCCCCCCCCCCCC(=O)O[C@@H]1[C@@H](C)[C@@]2(O)[C@@H](C=C(CO)C[C@]3(O)C(=O)C(C)=C[C@@H]23)[C@@H]2C(C)(C)[C@]12OC(C)=O`, in data set [13], the result was Active.
`COc1ccc(-c2coc3cc(O[C@@H]4O[C@H](CO)[C@@H](O)[C@H](O)[C@H]4O)ccc3c2=O)cc1` [ONONIN]: the Activity in [1] was 76%; in data set [2], “Non-toxic”; in data set [3], 39.3%; in data set [4], 100%; in [6], 100%; in data set [10], 2%. In data set [12], the Activity entry is listed as “Non-toxic”. In addition, the viability at 1000 molar ratio in data set [5] was over 80%. In addition, in [7], the viability at 100 molar ratio was 100%. The inhibition – broadly, the share of the control response that was lost under treatment – at 50 µM in [8] came out at 12.3%. The viability at 10 molar ratio in [9] amounted to 100%. Moreover, the viability at 10000 molar ratio in data set [11] was 80%.
For `COc1ccc(-c2coc3cc(O)c(OC)cc3c2=O)cc1` [CASTANIN], the Activity was 36.4% in data set [1]; “Non-toxic” in data set [2]; 0% in data set [3]; 75.8% in [4]; 100% in data set [6]; 34% in data set [10]. For the same compound, in [12], the Activity result is reported as “Non-toxic”. The viability at 1000 molar ratio in [5] was over 80%. Besides, the viability at 100 molar ratio in [7] was over 80%. 50 µM produced 16.4% inhibition in data set [8]. Moreover, the viability at 10 molar ratio in [9] came out at 100%. In addition, the outcome in data set [13] was inactive. In addition, the viability at 10000 molar ratio in [11] is 80%.
As to `C=C[C@]1(C)CC[C@@](C)(C(C)C)c2cc3c4c(c[nH]c4c21)C[C@@H](CO)NC(=O)[C@H](C(C)C)N3C`, the outcome in data set [13] was Active.
On to `COc1ccc(-c2coc3cc(OC(C)=O)ccc3c2=O)cc1`, for which the Activity in [1] was 15.2%; in data set [2], “Non-toxic”; in data set [3], 0%; in [4] it was 95.2%; in [6], 100%; in data set [10] it was 0%. Besides, the Activity entry in data set [12] is “Non-toxic”. For the same compound, in [5], the viability at 1000 molar ratio is over 80%. Moreover, in [7], the viability at 100 molar ratio was found to be 100%. Testing at 50 µM in data set [8] gave an inhibition of 40.2%. In addition, the viability at 10 molar ratio in data set [9] is 100%. In addition, the viability at 10000 molar ratio in data set [11] came out at 80%.
With `COc1ccc(-c2coc3cc(OC(C)=O)c(OC)cc3c2=O)cc1`, the Activity in data set [1] was 6%; in [2], “Non-toxic”; in data set [3] it was 0%; in [4], 42.3%; in data set [6], 72.7%; in [10], 2.1%. Moreover, the Activity result in [12] is on record as “Non-toxic”. For the same compound, in [5], the viability at 1000 molar ratio was over 80%. In data set [7], the viability at 100 molar ratio is over 80%. In data set [8], this compound came in with an inhibition at 50 µM of 33.9%. In addition, in data set [9], the viability at 10 molar ratio was 100%. The outcome in data set [13] was inactive. Also, the viability at 10000 molar ratio in [11] is 80%.
Regarding `COc1ccc(-c2coc3cc(O)ccc3c2=O)cc1` [FORMONONETIN], the Activity in data set [1] was 63.6%; in data set [2], “Non-toxic”; in [3] it was 0%; in [4], 92.6%; in [6], 100%; in [10] it was 0%. Also, the Activity entry in data set [12] is “Non-toxic”. In data set [5], the viability at 1000 molar ratio is over 80%. Further, the viability at 100 molar ratio in data set [7] was over 80%. The compound further yielded an inhibition at 50 µM in data set [8] of 34.5%. Also, the viability at 10 molar ratio in [9] was 100%. Further, the outcome in data set [13] was inactive. The viability at 10000 molar ratio in [11] worked out at 20%.
